Experiments:
[1] = target: T1, BRD4 (BDI_K57-E168) (Homo sapiens, UniProt O60885); assay: TR-FRET bromodomain binding assay, BRD4 first bromodomain; settings: His-tagged BD1, 100 nM Alexa647 probe; Ki calculated from IC50; dilution protocol A-G
T1 construct: BD1: amino acids K57-E168; made in house
Summary of the method: (§1)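 His-tagged BRD4 BD1 (K57-E168) or BD2 (8 nM) with Eu-anti-His antibody and Alexa647-labeled BET-inhibitor probe (100 nM for BDI, 30 nM for BDII), pH 6.0 phosphate buffer, 2% DMSO, 1 h at room temperature. TR-FRET (Ex 340, Em 495/520); IC50 by 4-parameter fit, converted to Ki using probe Kd and concentration.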

[2] = target: T2, BRD4 (BDII_E352-M457) (Homo sapiens, UniProt O60885); assay: TR-FRET bromodomain binding assay, BRD4 second bromodomain
T2 construct: made in house
Summary of the method: as §1

[3] = test system: breast cancer cell line MX-1; assay: MX-1 cell line proliferation assay (3-day, Cell Titer Glo); format: cell-based; settings: Homo sapiens, MX1, MX-1 cells, 72 h, top concentration 3 μM, read-out: Cellular proliferation: EC50
Protocol: The impact of compounds of the Examples on cancer cell proliferation was determined using the breast cancer cell line MX-1 (ATCC) in a 3-day proliferation assay and the data are reported in Table 1. MX-1 cells were maintained in RPMI 1640 medium (Sigma) supplemented with 10% FBS at 37 C.° and an atmosphere of 5% CO2. For compound testing, MX-1 cells were plated in 96-well black bottom plates at a density of 5000 cells/well in 90 μL of culture media and incubated at 37° overnight to allow cell adhesion and spreading. Compound dilution series were prepared in DMSO via a 3-fold serial dilution from 3 mM to 0.1 μM. The DMSO dilution series were then diluted 1:100 in phosphate buffered saline, and 10 μL of the resulted solution were added to the appropriate wells of the MX-1 cell plate. The final compound concentrations in the wells were 3, 1, 0.3, 0.1, 0.03, 0.01, 0.003, 0.001, 0.0003 and 0.0001 μM.
Luminescence readings from the Cell Titer Glo assay were normalized to the DMSO treated cells and analyzed using the GraphPad Prism software with sigmoidal curve fitting to obtain EC50s. The minimum significant ratio (MSR) was determined to evaluate assay reproducibility (Eastwood et al., (2006) J Biomol Screen, 11: 253-261).

Ki [1] [nM] | Ki [2] [nM] | EC50 [3] [nM] | SMILES
3.43 | 70.2 | 138 | Cc1[nH]c(-c2ccccc2Oc2ccccc2)c2cc(C(=O)NC3CN(C)C3)[nH]c(=O)c12 [Example 49, 3-methyl-N-(1-methylazetidin-3-yl)-4-oxo-1-(2-phenoxyphenyl)-4,5-dihydro-2H-pyrrolo[3,4-c]pyridine-6-carboxamide]
30.1 | 11.3 | 210 | CO[C@H]1C[C@H](NC(=O)c2cc3c(-c4ccccc4Oc4ccccc4)[nH]c(C)c3c(=O)[nH]2)C1 [Example 50, N-(trans-3-methoxycyclobutyl)-3-methyl-4-oxo-1-(2-phenoxyphenyl)-4,5-dihydro-2H-pyrrolo[3,4-c]pyridine-6-carboxamide]
6.13 | 190 | 117 | Cc1[nH]c(-c2ccccc2Oc2ccccc2)c2cc(C(=O)N[C@@H]3CCN(C)C3)[nH]c(=O)c12 [Example 51, (R)-3-methyl-N-(1-methylpyrrolidin-3-yl)-4-oxo-1-(2-phenoxyphenyl)-4,5-dihydro-2H-pyrrolo[3,4-c]pyridine-6-carboxamide]
36.9 | 97.5 | 763 | Cc1[nH]c(-c2ccccc2Oc2ccccc2)c2cc(C(=O)NC(C)(C)C#N)[nH]c(=O)c12 [Example 52, N-(2-cyanopropan-2-yl)-3-methyl-4-oxo-1-(2-phenoxyphenyl)-4,5-dihydro-2H-pyrrolo[3,4-c]pyridine-6-carboxamide]
8.25 | 72.1 | 162 | Cc1[nH]c(-c2ccccc2Oc2ccccc2)c2cc(C(=O)NN(C)C)[nH]c(=O)c12 [Example 53, N′,N′,3-trimethyl-4-oxo-1-(2-phenoxyphenyl)-4,5-dihydro-2H-pyrrolo[3,4-c]pyridine-6-carbohydrazide]
1.78 | 15.8 | 252 | Cc1[nH]c(-c2ccccc2Oc2ccccc2)c2cc(C(=O)NC3CCNCC3)[nH]c(=O)c12 [Example 57, 3-methyl-4-oxo-1-(2-phenoxyphenyl)-N-(piperidin-4-yl)-4,5-dihydro-2H-pyrrolo[3,4-c]pyridine-6-carboxamide]
2.02 | 16 | 329 | Cc1[nH]c(-c2ccccc2Oc2ccccc2)c2cc(C(=O)NC[C@H]3CCNC3)[nH]c(=O)c12 [Example 58, (S)-3-methyl-4-oxo-1-(2-phenoxyphenyl)-N-(pyrrolidin-3-ylmethyl)-4,5-dihydro-2H-pyrrolo[3,4-c]pyridine-6-carboxamide]
3.67 | 59.7 | 223 | Cc1[nH]c(-c2ccccc2Oc2ccccc2)c2cc(C(=O)NCC3CNCC3(F)F)[nH]c(=O)c12 (stereo not drawn) [Example 59, N-[(4,4-difluoropyrrolidin-3-yl)methyl]-3-methyl-4-oxo-1-(2-phenoxyphenyl)-4,5-dihydro-2H-pyrrolo[3,4-c]pyridine-6-carboxamide]
13 | 116 | 111 | Cc1[nH]c(-c2ccccc2Oc2ccccc2)c2cc(-c3nc(-c4cccnc4)no3)[nH]c(=O)c12 [Example 60, 3-methyl-1-(2-phenoxyphenyl)-6-(3-(pyridin-3-yl)-1,2,4-oxadiazol-5-yl)-2H-pyrrolo[3,4-c]pyridin-4(5H)-one]
10 | 138 | 159 | Cc1noc(-c2cc3c(-c4ccccc4Oc4ccccc4)[nH]c(C)c3c(=O)[nH]2)n1 [Example 61, 3-methyl-6-(3-methyl-1,2,4-oxadiazol-5-yl)-1-(2-phenoxyphenyl)-2H-pyrrolo[3,4-c]pyridin-4(5H)-one]
43.5 | 257 | 139 | Cc1[nH]c(-c2ccccc2Oc2ccccc2)c2cc(-c3nc(C4CC4)no3)[nH]c(=O)c12 [Example 63, 6-(3-cyclopropyl-1,2,4-oxadiazol-5-yl)-3-methyl-1-(2-phenoxyphenyl)-2H-pyrrolo[3,4-c]pyridin-4(5H)-one]
2.28 | 7.11 | 29.2 | Cc1[nH]c(-c2ccccc2Oc2ccccc2)c2cc(-c3nc(Cn4cncn4)no3)[nH]c(=O)c12 [Example 64, 6-(3-((1H-1,2,4-triazol-1-yl)methyl)-1,2,4-oxadiazol-5-yl)-3-methyl-1-(2-phenoxyphenyl)-2H-pyrrolo[3,4-c]pyridin-4(5H)-one]
7.57 | 28.5 | 71.1 | Cc1[nH]c(-c2ccccc2Oc2ccccc2)c2cc(-c3nc(-c4cnccn4)no3)[nH]c(=O)c12 [Example 65, 3-methyl-1-(2-phenoxyphenyl)-6-(3-(pyrazin-2-yl)-1,2,4-oxadiazol-5-yl)-2H-pyrrolo[3,4-c]pyridin-4(5H)-one]
9.31 | 151 | 81 | Cc1[nH]c(-c2ccccc2Oc2ccccc2)c2cc(-c3nc(Cc4cccnc4)no3)[nH]c(=O)c12 [Example 66, 3-methyl-1-(2-phenoxyphenyl)-6-(3-(pyridin-3-ylmethyl)-1,2,4-oxadiazol-5-yl)-2H-pyrrolo[3,4-c]pyridin-4(5H)-one]
9.45 | 78 | 80.5 | Cc1[nH]c(-c2ccccc2Oc2ccccc2)c2cc(-c3nc(-c4ccccn4)no3)[nH]c(=O)c12 [Example 67, 3-methyl-1-(2-phenoxyphenyl)-6-(3-(pyridin-2-yl)-1,2,4-oxadiazol-5-yl)-2H-pyrrolo[3,4-c]pyridin-4(5H)-one]
2.12 | 8.8 | 30 | CCOC(=O)c1cc2c(-c3cc(CS(C)(=O)=O)ccc3Oc3ccc(F)cc3F)[nH]c(C)c2c(=O)[nH]1 [Example 68, ethyl 1-{2-(2,4-difluorophenoxy)-5-[(methylsulfonyl)methyl]phenyl}-3-methyl-4-oxo-4,5-dihydro-2H-pyrrolo[3,4-c]pyridine-6-carboxylate]
52.2 | 416 | > 3000 | CCOC(=O)c1cc2c(-c3cc(F)ccc3OCC3CC3)[nH]c(C)c2c(=O)[nH]1 [Example 69, ethyl 1-[2-(cyclopropylmethoxy)-5-fluorophenyl]-3-methyl-4-oxo-4,5-dihydro-2H-pyrrolo[3,4-c]pyridine-6-carboxylate]
82.7 | 356 | > 3000 | Cc1[nH]c(-c2cc(F)ccc2OCC2CC2)c2cc(C(N)=O)[nH]c(=O)c12 [Example 70, 1-[2-(cyclopropylmethoxy)-5-fluorophenyl]-3-methyl-4-oxo-4,5-dihydro-2H-pyrrolo[3,4-c]pyridine-6-carboxamide]
38.5 | 659 | 204 | Cc1[nH]c(-c2cc(F)ccc2OCC2CC2)c2cc(-c3nc(-c4cnccn4)no3)[nH]c(=O)c12 [Example 71, 1-(2-(cyclopropylmethoxy)-5-fluorophenyl)-3-methyl-6-(3-(pyrazin-2-yl)-1,2,4-oxadiazol-5-yl)-2H-pyrrolo[3,4-c]pyridin-4(5H)-one]
1.88 | 18.6 | 78 | Cc1[nH]c(-c2cc(N)ccc2Oc2ccccc2)c2cn[nH]c(=O)c12 [Example 74, 5-(5-amino-2-phenoxyphenyl)-7-methyl-2,6-dihydro-1H-pyrrolo[3,4-d]pyridazin-1-one]
3.66 | 9.47 | 51.8 | CCS(=O)(=O)Nc1ccc(Oc2ccccc2)c(-c2[nH]c(C)c3c(=O)[nH]ncc23)c1 [Example 75, N-[3-(7-methyl-1-oxo-2,6-dihydro-1H-pyrrolo[3,4-d]pyridazin-5-yl)-4-phenoxyphenyl]ethanesulfonamide]
